# Measured values as given in US6531148B1, “Therapeutic agents” (Takara Shuzo Co., Ltd., priority 1998, dated 2003).
# pIC50, pKi: −log10 of the molar value.
# Columns and labels:
# [1] = system: HL-60 cells; test: Antiproliferation activity against tumor cells (MTT, absorbance at 590 nm); assay type: cell-based
# Description: The Samples 1 to 3 were separately sterilized by filtration and appropriately diluted with sterile water. 10 μl of each dilution was placed in a well of a 96-well microtiter plate. 90 μl of RPMI 1640 medium (Nissui) containing 10% fetal bovine serum (Gibco), which had been treated at 56° C. for 30 minutes, and 5,000 HL-60 cells (ATCC CCL-240) was added thereto. The plate was incubated at 37° C. for 48 hours in the presence of 5% CO2. The cell morphology was examined under an optical microscope. 10 μl of 5 mg/ml 3-(4,5-dimethylthiazol-2-yl)-2,5-diphenyltetrazolium bromide (Sigma) solution in phosphate buffered saline was further added thereto and the incubation was continued for additional 4 hours. 100 μl of 2-propanol containing 0.04 N HCl was added to the well and the mixture was thoroughly stirred. The absorbance at 590 nm was measured to determine the cell growth level.
# [2] = system: inducible NO synthase (iNOS); test: iNOS expression (RT-PCR, Western blotting); assay type: cell-based; conditions: RAW264.7 cells cultured for 4, 6 or 8 hours
# Description: The present inventors have confirmed that the compound of formula (I), the compound of formula (II) and salts thereof inhibit the expression of iNOS. The confirmation was carried out at protein level by using Western blotting and at messenger RNA level by using RT-PCR. […] Therefore, the compound is effective in treating and preventing diseases that require inhibition of NO production for their treatment and prevention.
# RNA was prepared from RAW264.7 cells cultured for 4, 6 or 8 hours under conditions similar to those described above. The amount of mRNA encoding inducible NO synthase [iNOS; Biochem. Byophys. Res. Commun., 215:148-153 (1995)] contained in the RNA was determined by the RT-PCR method.
# [3] = system: α-glucosidase from yeast; test: α-Glucosidase inhibition test (yeast enzyme); assay type: biochemical; conditions: for Remaining activity: activity without test sample = 100%; for Absorbance (OD 410 nm): without DGE 0.444
# Description: (1) The activity of inhibiting α-glucosidase of DGE was measured by reacting p-nitrophenyl-α-D-glucopyranoside, a chromogenic substrate for α-glucosidase, with α-glucosidase from yeast and calorimetrically quatifying 4-nitrophnol released by hydrolysis. Briefly, 10 μl of α-glucosidase solution [40 mU/ml, derived from S. cerevisiae, Sigma, dissolved in 10 mM phosphate buffer (pH 7.2 at 37° C.)] and 10 μl of a solution containing a test sample dissolved in 10 mM phosphate buffer (pH 7.2 at 37° C.) were mixed. 80 μl of a 1.5 mg/ml substrate solution [Sigma, dissolved in 10 mM phosphate buffer (pH 7.2 at 37° C.) was added thereto to initiate the reaction. After reacting at 37° C. for 40 minutes, the absorbance at 410 nm was measured (Shimadzu uv2200). The remaining activity therein was calculated defining the activity without the test sample as 100%.
# [4] = biological target: T1, α-glucosidase from rat small intestine mucous membrane (Rattus norvegicus, UniProt P23739); test: α-Glucosidase inhibition test (crude enzyme from rat small intestine); assay type: biochemical; conditions: for relative activity: substrate Sucrose, control without DGE = 100%
# T1 construct: relative activity; other: substrate Sucrose, DGE 0.2 mM; control without DGE = 100%; relative activity; other: substrate Sucrose, DGE 0.5 mM; other: substrate Sucrose, DGE 1.0 mM; other: substrate Sucrose, DGE 2.0 mM; other: for sucrose, Dixon
# T1 sequence (P23739 whole entry): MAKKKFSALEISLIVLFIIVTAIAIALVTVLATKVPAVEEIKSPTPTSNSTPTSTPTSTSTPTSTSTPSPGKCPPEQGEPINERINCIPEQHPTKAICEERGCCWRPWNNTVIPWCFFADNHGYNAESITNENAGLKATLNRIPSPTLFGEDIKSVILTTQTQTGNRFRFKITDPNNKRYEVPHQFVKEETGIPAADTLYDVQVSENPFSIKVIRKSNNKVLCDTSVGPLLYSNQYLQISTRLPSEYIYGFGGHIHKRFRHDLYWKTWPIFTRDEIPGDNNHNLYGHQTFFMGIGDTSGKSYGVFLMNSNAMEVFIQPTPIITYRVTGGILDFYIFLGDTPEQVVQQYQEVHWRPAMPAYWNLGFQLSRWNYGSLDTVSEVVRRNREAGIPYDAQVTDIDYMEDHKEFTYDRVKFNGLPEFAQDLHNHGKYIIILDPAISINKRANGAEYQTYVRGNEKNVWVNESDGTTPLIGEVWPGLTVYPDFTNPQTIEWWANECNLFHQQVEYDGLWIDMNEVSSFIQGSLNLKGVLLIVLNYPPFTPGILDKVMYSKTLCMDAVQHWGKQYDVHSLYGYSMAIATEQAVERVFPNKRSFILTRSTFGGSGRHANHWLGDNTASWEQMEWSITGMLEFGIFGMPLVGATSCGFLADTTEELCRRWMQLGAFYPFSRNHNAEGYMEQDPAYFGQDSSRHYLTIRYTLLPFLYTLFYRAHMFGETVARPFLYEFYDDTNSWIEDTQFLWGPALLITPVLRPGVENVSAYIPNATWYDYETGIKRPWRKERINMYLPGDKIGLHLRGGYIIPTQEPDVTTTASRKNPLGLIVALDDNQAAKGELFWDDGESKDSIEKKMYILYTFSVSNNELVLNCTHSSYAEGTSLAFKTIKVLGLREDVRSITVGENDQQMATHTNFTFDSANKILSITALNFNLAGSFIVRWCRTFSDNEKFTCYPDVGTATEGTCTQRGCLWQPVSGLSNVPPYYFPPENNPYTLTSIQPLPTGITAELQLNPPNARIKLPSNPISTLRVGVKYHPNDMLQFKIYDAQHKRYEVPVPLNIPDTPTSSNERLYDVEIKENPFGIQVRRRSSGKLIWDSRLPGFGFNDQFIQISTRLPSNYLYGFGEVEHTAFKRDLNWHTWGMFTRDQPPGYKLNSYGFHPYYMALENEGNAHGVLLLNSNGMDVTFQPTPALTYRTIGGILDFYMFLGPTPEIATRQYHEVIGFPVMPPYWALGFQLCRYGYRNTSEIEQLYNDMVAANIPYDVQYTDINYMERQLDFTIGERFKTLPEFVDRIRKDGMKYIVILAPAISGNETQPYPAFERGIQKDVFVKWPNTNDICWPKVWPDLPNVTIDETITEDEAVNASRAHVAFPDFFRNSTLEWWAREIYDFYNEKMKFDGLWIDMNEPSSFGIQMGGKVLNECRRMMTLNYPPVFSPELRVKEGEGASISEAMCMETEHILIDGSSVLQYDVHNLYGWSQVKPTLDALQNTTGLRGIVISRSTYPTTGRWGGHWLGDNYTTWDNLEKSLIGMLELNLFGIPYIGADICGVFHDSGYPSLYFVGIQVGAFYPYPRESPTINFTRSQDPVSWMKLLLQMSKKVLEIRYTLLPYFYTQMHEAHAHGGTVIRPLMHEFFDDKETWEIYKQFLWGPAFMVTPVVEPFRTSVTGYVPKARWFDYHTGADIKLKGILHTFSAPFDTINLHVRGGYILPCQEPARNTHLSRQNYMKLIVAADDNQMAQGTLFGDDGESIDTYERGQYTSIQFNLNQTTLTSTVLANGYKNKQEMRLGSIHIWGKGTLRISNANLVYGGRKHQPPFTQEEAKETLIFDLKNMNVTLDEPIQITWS
# Description: (2) A crude enzyme preparation of α-glucosidase from rat small intestine mucous membrane [prepared according to the method as described in Arne Dahlqvist, Anal. Biochem., 7:18-25 (1964)] was used to measure the activity of inhibiting α-glucosidase of DGE as follows.
# For the enzymatic reaction, 80 μl of a solution of sucrose, maltose, treharose or soluble starch as a substrate in 10 mM phosphate buffer (pH 7.0) buffer at a final concentration of 100 mM (0.5% for soluble starch) was added to 10 μl of a test sample solution appropriately diluted with the same buffer. 10 μl of the crude enzyme solution prepared from rat small intestine was added thereto. The mixture was reacted at 37° C. for 20 minutes.
# The enzymatic reaction was assessed by adding 3 ml of a reagent for glucose measurement (Wako Pure Chemical Industries) to the reaction mixture, reacting at 37° C. for 5 minutes and then measuring the absorbance at 505 nm as the glucose content in the mixture.
# The inhibitory activity of DGE on the digestion of each substrate by α-glycosidase was measured using DGE at four different concentrations according to the above-mentioned method. The activity of inhibiting α-glycosidase was expressed as a relative activity (%) defining the activity of the control without DGE as 100%.
# [5] = system: spleen lymphocytes; test: Lymphocyte activation inhibition test; assay type: cell-based, mouse; conditions: 3H-thymidine uptake
# Excerpt: A ddY mouse (female, 7 weeks old, weighing about 25 g) was purchased from Nippon SLC and pre-bred for 1 week before using in experiments. A spleen was taken out from the mouse, finely minced and suspended in RPMI-1640 medium containing 10% fetal bovine serum (HyClone) to obtain a single cell suspension. Adhesive cells adhered to a plastic Petri dish were removed and non-adhesive cells were used as spleen lymphocytes. The spleen lymphocytes were suspended in RPMI 1640 medium containing 10% fetal bovine serum at a concentration of 2×10^6/ml. 200 μl of the suspension was seeded into each well of a 96-well microtiter plate. DGE at a varying concentration was added to each well other than the control well. Furthermore, 5 μg of Con A (Nacalai Tesque) was added to each well. The plate was incubated at 37° C. for two days in the presence of 5% CO2. 37 kBq of ^3H-thymidine (Daiichi Pure Chemicals) was added to each well to pulse-label the cells on the day before the completion of the cultivation. After cultivation, the cells were harvested on a glass filter to measure the radioactivity.
molecule,measurement,setting,value
"5-L-glutathion-S-yl-2-hydroxy-3,7-dioxabicyclo[2.2.2]octan-1-ol [DGE-GSH]",antiproliferation activity against tumor cells,"[1]; 48 hours, absorbance at 590 nm",inhibition of cell growth
same,"GI50, the concentration that results in 50% growth inhibition",[1]; half absorbance at 590 nm compared with water control,about 48.7 μg/ml
same,formation of apoptotic bodies,[1]; optical microscope,apoptotic bodies were observed
"O=C1C=CC(CO)OC1O [DGE, L-glycero-1,5-epoxy-1αβ,6-dihydroxy-cis-hex-3-en-2-one]",amplification of a DNA fragment from the iNOS mRNA,[2],no amplification of the fragment was observed
same,Remaining activity,[3]; DGE added 5 μM,98%
same,Absorbance (OD 410 nm),[3]; DGE added 5 μM,0.433
same,Remaining activity,[3]; DGE added 50 μM,90%
same,Absorbance (OD 410 nm),[3]; DGE added 50 μM,0.401
same,Remaining activity,[3]; DGE added 500 μM,50%
same,Absorbance (OD 410 nm),[3]; DGE added 500 μM,0.221
same,Remaining activity,[3]; DGE added 1000 μM,26%
same,Absorbance (OD 410 nm),[3]; DGE added 1000 μM,0.114
same,Remaining activity,[3]; DGE added 5000 μM,19%
same,Absorbance (OD 410 nm),[3]; DGE added 5000 μM,0.083
same,pIC50,"[3]; substrate p-nitrophenyl-α-D-glucopyranoside, read-out: concentration of DGE that inhibits α-glucosidase activity by 50% (IC50)",3.30
same,activity of inhibiting α-glycosidase with sucrose as a substrate compared with maltose or the like,[4],exhibited a higher activity of inhibiting α-glycosidase
same,pKi,"[4]; for sucrose, Dixon plot, read-out: inhibition constant (Ki)",2.22
same,relative activity,[4]; DGE 0.2 mM,91%
same,relative activity,[4]; DGE 0.5 mM,92%
same,relative activity,[4]; DGE 1.0 mM,83%
same,relative activity,[4]; DGE 2.0 mM,71%
same,inhibitory activity against lymphocyte proliferation activated by stimulation with mitogen,[5]; Con A,in a dose-dependent manner
same,concentration that almost completely inhibits the proliferation,[5]; Con A-stimulated spleen lymphocytes,0.3 µg/mL
